Test results published in patent US9353119B2, “Composition for preventing and treating non-small cell lung cancer, containing pyrazino-triazine derivatives” (JW PHARMACEUTICAL CORPORATION, priority 2011, dated 2016).
Counter-ions that a name gives are not always drawn. Like-named read-outs stand apart in the source and are kept apart here.

Experiments:
NCI-H1975 = assay: In vitro cell growth inhibition (CellTiter-Glo), NCI-H1975; format: cell-based; details: Homo sapiens; NCI-H1975, 72 hrs
Experimental: (§1) This experiment aims to evaluate the in vitro anticancer activity of the pyrazino-triazine derivative (Chemical Formula 1-1P) of the present invention in various NSCLC cell lines.
(§2) NSCLC cells lines were seeded at a density of 5×10^3 cells/well into 96-well plates. Compound 1-1P and the reference drug doxorubicin were serially diluted by ½ in the concentration range of from 0.001 μM to 1 μM and the cells in each well were treated with each dilution in duplicate, followed by incubation for 72 hours in a 37° C., 5% CO2 incubator. CellTiter-Glo® (Luminescent Cell Viability Assay, #G7573, Promega) was added in an amount of 100 μL to each well and shaken for 2 min to lyze the cells. After incubation for 10 min at room temperature (25° C.), luminescence from each well was on a luminometer (Envision (Perkinelmer).
(§3) The anticancer activity depending on the administration of Compound 1-1P was evaluated over seven different NSCLC cell lines by cell growth inhibition 50 (GI50), a concentration needed to reduce the growth of treated cells to half that of untreated cells, calculated according to the following formula. GI50=(50−(y1−((y1−y2)/(x1−x2))*x1)/((y1−y2)/(x1−x2))
(§4) x1, x2=50% cell kill or lethal concentrations
(§5) y1, y2=cell densities at 50% cell kill or lethal concentrations

A549 = assay: In vitro cell growth inhibition (CellTiter-Glo), A549; format: cell-based; details: Homo sapiens; A549, 72 hrs
Experimental: as §1, §2, §3, §4, §5

PC6 = assay: In vitro cell growth inhibition (CellTiter-Glo), PC6; format: cell-based; details: Homo sapiens, PC-6; PC6, 72 hrs
Experimental: as §1, §2, §3, §4, §5

HCC827 = assay: In vitro cell growth inhibition (CellTiter-Glo), HCC827; format: cell-based; details: Homo sapiens; HCC827, 72 hrs
Experimental: as §1, §2, §3, §4, §5

NCI-H1650 = assay: In vitro cell growth inhibition (CellTiter-Glo), NCI-H1650; format: cell-based; details: Homo sapiens; NCI-H1650, 72 hrs
Experimental: as §1, §2, §3, §4, §5

NCI-H23 = assay: In vitro cell growth inhibition (CellTiter-Glo), NCI-H23; format: cell-based; details: Homo sapiens; NCI-H23, 72 hrs
Experimental: as §1, §2, §3, §4, §5

NCI-H460 = assay: In vitro cell growth inhibition (CellTiter-Glo), NCI-H460; format: cell-based; details: Homo sapiens; NCI-H460, 72 hrs
Experimental: as §1, §2, §3, §4, §5

NCI-H1975 cells [1] = assay: In vivo anticancer activity, NCI-H1975 xenograft (Experimental Example 6); parameters: species or system Balb/c nude mice
Experimental: From Day 11 (D11) to Day 22 (D22) after the transplantation, five groups of the NCI-H1975-transplanted mice were administered with compounds 1-3 and 1-5 as summarized in Table 11, below.

NCI-H1975 cells [2] = assay: In vivo anticancer activity, NCI-H1975 xenograft (Experimental Example 8); parameters: species or system Balb/c nude mice; details: Group 2: 60 mg/kg IV BIW for 2 weeks
Experimental: From Day 11 (D11) to Day 22 (D22) after the transplantation, two groups of the NCI-H1975-transplanted mice were administered with compound 1-7 as summarized in Table 13, below.

NCI-H1975 cells [3] = assay: In vivo anticancer activity, NCI-H1975 xenograft (Experimental Example 5)
Experimental: From Day 11 (D11) to Day 22 (D22) after the transplantation, three groups of the NCI-H1975-transplanted mice were administered with a bisodium salt of the compound of Chemical Formula 2-2 or cisplatin as summarized in Table 9, below.
The mean volume of tumors before the experiment (mean starting tumor volume) was 118 mm^3

NCI-H460 cells = format: in vivo, Balb/c nude mice; details: for TGI %: Table 7 summary, NCI-H460 (EGFR TKI resistant), Cpd 1-1 given TIW
Experimental: From Day 6 (D1) to […] (D12) after the transplantation, three groups of the NCI-H460-transplanted mice were administered with compound of Chemical Formula 1-1 or paclitaxel as summarized in Table 3, below.

HCC827 cells = assay: In vivo anticancer activity, HCC827 xenograft (Experimental Example 3); details: for MBL (%): D11; for TGI %: Table 7 summary, HCC827 (EGFR TKI sensitive), dose not given
NCI-H1975 cells [4] = assay: In vivo anticancer activity, NCI-H1975 xenograft (Experimental Example 1); parameters: species or system Balb/c nude mice; details: for TGI %: Table 7 summary, NCI-H1975 (EGFR TKI resistant)
Experimental: Measurements of body weights and tumor sizes were randomized for n=7 per group using in-house randomization software. The tumor size was calculated from measurements of the longest axis (length, m) and the shortest axis (width, m) according to the following formula: Tumor size (mm^3): Width (mm)×Width (mm)×Length (mm)/2
The anticancer activity depending on the administration was evaluated by tumor growth inhibition, (TGI, %) calculated according to the following formulas.
When the tumor size of the drug-administered group is larger than the initial tumor size: % TGI=100*(1−(tumor volumeDay X−tumor volumeInitial for treated group)/(tumor volumeDay X−tumor volumeInitial for Vehicle group))
When the tumor size of the drug-administered group is smaller than the initial tumor size: % TGI=100+100*(1−(Treated group tumor volumeDayX/Treated group tumor volumeinitial))
Herein, mortality indicated deaths resulting from drug administration.
Herein, maximum body weight loss (MBL) means the largest loss of body weight caused by drug administration and is an important factor for determining maximum tolerable dose (MTD). The change of body weight was expressed as percentage of the body weight just before drug administration (D1). As a rule, the dose at which 10% or more of the body weight was lost was determined as the MTD.

[5] = Group 3: 30 mg/kg IV QDx5 for 2 weeks
[6] = Group 3: cisplatin 2.5 mg/kg IV BIW for 2 weeks
[7] = Group 2: 1-1 150 mg/kg iv, six injections (D1, 3, 5, 8, 10, 12)
[8] = Group 2: 1-1 100 mg/kg iv once a day, 20 injections over four weeks
[9] = Group 3: 1-1 150 mg/kg iv once a day, 20 injections over four weeks
[10] = Group 2: 1-1 100 mg/kg iv once a day, ten injections (D8-12, 15-19)
[11] = Group 3: 1-1 150 mg/kg iv once a day, ten injections (D8-12, 15-19)
[12] = Group 2: 200 mg/kg IV QDx5 for 2 weeks
[13] = Group 2: 40 mg/kg IV QDx5 for 2 weeks
[14] = Group 3: paclitaxel 20 mg/kg ip (D1, 3, 5, 8, 10, 12)
[15] = Group 6: paclitaxel 10 mg/kg ip once per week, four injections
[16] = Group 6: paclitaxel 7.5 mg/kg ip once a week, two injections

SMILES: C=CCN1CC(=O)N2[C@@H](Cc3ccc(O)cc3)C(=O)N(Cc3cccc4c(C(C)=O)cn(C)c34)C[C@@H]2N1C(=O)NCc1ccccc1 [Compound 1-1P]
- GI50 (NCI-H1975): 111 nM
- GI50 (A549): 372 nM
- GI50 (PC6): 493 nM
- GI50 (HCC827): 115 nM
- GI50 (NCI-H1650): 156 nM
- GI50 (NCI-H23): 67 nM
- GI50 (NCI-H460): 272 nM

SMILES: C=CCN1CC(=O)N2[C@@H](Cc3ccc(OP(=O)(O)O)cc3)C(=O)N(Cc3cccc4c(C(=O)Nc5ccc(N(C)C)nc5)cn(C)c34)C[C@@H]2N1C(=O)NCc1ccccc1 [Compound 1-5]
- Mortality (NCI-H1975 cells [1]; [5]): 0/6
- TGI % D22 (NCI-H1975 cells [1]; [5]): 71%
- Tumor size @D 22 (Mean ± S.E. mm^3) (NCI-H1975 cells [1]; [5]): 464 ± 45 mm^3
- MBL (%) (NCI-H1975 cells [1]; Group 3: 30 mg/kg IV QDx5 for 2 weeks, D12): 5 (D12) %

SMILES: C=CCN1CC(=O)N2[C@@H](Cc3ccc(O)cc3)C(=O)N(Cc3cccc4c(C(=O)Nc5ccc(NCCN6CCOCC6)nc5)cn(C)c34)C[C@@H]2N1C(=O)NCc1ccccc1.Cl [Compound 1-7]
- Mortality (NCI-H1975 cells [2]): 0/5
- TGI % D22 (NCI-H1975 cells [2]): 41%
- Tumor size @D 22 (Mean ± S.E. mm^3) (NCI-H1975 cells [2]): 410 mm^3

SMILES: N.N.[Cl][Pt][Cl] [Cisplatin, reference compound]
- Mortality (NCI-H1975 cells [3]; [6]): 0/6
- TGI % D22 (NCI-H1975 cells [3]; [6]): 23%
- Tumor size @D 22 (Mean ± S.E. mm^3) (NCI-H1975 cells [3]; [6]): 750 ± 53 mm^3

SMILES: C=CCN1CC(=O)N2[C@@H](Cc3ccc(OP(=O)([O-])O)cc3)C(=O)N(Cc3cccc4c(C(C)=O)cn(C)c34)C[C@@H]2N1C(=O)NCc1ccccc1.[Na+] [Compound 1-1]
- Mortality (NCI-H460 cells; [7]): 0/6
- TGI % D12 (NCI-H460 cells; [7]): 25%
- Tumor size @D 12 (Mean ± S.E. mm^3) (NCI-H460 cells; [7]): 1196 ± 247 mm^3
- MBL (%) (NCI-H460 cells; Group 2: 1-1 150 mg/kg iv, six injections (D1, 3, 5, 8, 10, 12), @D2): 4 (@D2) %
- TGI % (NCI-H460 cells): 25%
- Mortality (HCC827 cells; [8]): 0/7
- TGI % D33 (HCC827 cells; [8]): 50%
- Tumor size @D 33 (Mean ± S.E. mm^3) (HCC827 cells; [8]): 380 ± 29 mm^3
- MBL (%) (HCC827 cells; [8]): 1 (D11) %
- Mortality (HCC827 cells; [9]): 0/7
- TGI % D33 (HCC827 cells; [9]): 68%
- Tumor size @D 33 (Mean ± S.E. mm^3) (HCC827 cells; [9]): 262 ± 30 mm^3
- MBL (%) (HCC827 cells; [9]): 1 (D11) %
- TGI % (HCC827 cells): 78%
- Tumor size on D22 compared with vehicle control (NCI-H1975 cells [4]; D22, dose not given): significantly reduced
- Mortality (NCI-H1975 cells [4]; [10]): 0/7
- TGI % D22 (NCI-H1975 cells [4]; [10]): 74%
- Tumor size @D 22) (Mean ± S.E. mm3) (NCI-H1975 cells [4]; [10]): 307 ± 97 mm3
- Mortality (NCI-H1975 cells [4]; [11]): 0/7
- TGI % D22 (NCI-H1975 cells [4]; [11]): 109%
- Tumor size @D 22) (Mean ± S.E. mm3) (NCI-H1975 cells [4]; [11]): 57 ± 22 mm3
- TGI % (NCI-H1975 cells [4]; dose not given): 100%

SMILES: C[C@H]1[C@H]2N(C(=O)CN(C)N2C(=O)NCc2ccccc2)[C@@H](Cc2ccc(OP(=O)(O)O)cc2)C(=O)N1Cc1cccc2cccnc12 [2Na Salt of Cpd. 2-2]
- MBL (%) (NCI-H1975 cells [3]; [12]): no loss
- Mortality (NCI-H1975 cells [3]; [12]): 0/6
- TGI % D22 (NCI-H1975 cells [3]; [12]): 27%
- Tumor size @D 22 (Mean ± S.E. mm^3) (NCI-H1975 cells [3]; [12]): 720 ± 104 mm^3

SMILES: C=CCN1CC(=O)N2[C@@H](Cc3ccc(OP(=O)(O)O)cc3)C(=O)N(Cc3cccc4c(-c5ccc(C(=O)N6CCCCC6)cc5)cn(C)c34)C[C@@H]2N1C(=O)NCc1ccccc1 [Compound 1-3]
- Mortality (NCI-H1975 cells [1]; [13]): 0/6
- TGI % D22 (NCI-H1975 cells [1]; [13]): 62%
- Tumor size @D 22 (Mean ± S.E. mm^3) (NCI-H1975 cells [1]; [13]): 571 ± 38 mm^3
- MBL (%) (NCI-H1975 cells [1]; Group 2: 40 mg/kg IV QDx5 for 2 weeks, D19): 4 (D19) %

SMILES: CC(=O)O[C@H]1C(=O)[C@@]2(C)[C@H]([C@H](OC(=O)c3ccccc3)[C@]3(O)C[C@H](OC(=O)[C@H](O)[C@@H](NC(=O)c4ccccc4)c4ccccc4)C(C)=C1C3(C)C)[C@]1(OC(C)=O)CO[C@@H]1C[C@@H]2O [Paclitaxel, reference compound]
- Mortality (NCI-H460 cells; [14]): 0/6
- TGI % D12 (NCI-H460 cells; [14]): 15%
- Tumor size @D 12 (Mean ± S.E. mm^3) (NCI-H460 cells; [14]): 1339 ± 260 mm^3
- TGI % (NCI-H460 cells): >15%
- Mortality (HCC827 cells; [15]): 0/6
- TGI % D33 (HCC827 cells; [15]): 18%
- Tumor size @D 33 (Mean ± S.E. mm^3) (HCC827 cells; [15]): 557 ± 83 mm^3
- TGI % (HCC827 cells): >18%
- Mortality (NCI-H1975 cells [4]; [16]): 0/7
- TGI % D22 (NCI-H1975 cells [4]; [16]): 28%
- Tumor size @D 22) (Mean ± S.E. mm3) (NCI-H1975 cells [4]; [16]): 736 ± 79 mm3
- TGI % (NCI-H1975 cells [4]; dose not given): >30%
